Key:
[1] = Changes over time of Z to E transition by 19F NMR; type: physicochemical; details: light 505 nm, 100 mM in DMSO
Text: We can observe that for electromagnetic radiation in the range of wavelengths 390 nm to 610 nm, transitions from E to Z of about 0–76% are obtained. The best results for all compounds are in visible wavelengths 505 nm or 525 nm (30.59–75.44%). From analyzing Figure 2 we can draw the following conclusions: all synthesized compounds undergo switching under visible light (this is important because UV radiation can damage the DNA of cells, inhibiting replication and, as a result, preventing cell division). For the 2,6-difluoro substituents (17i), (17j), (17k), and (17l) with values of 74.84%, 73.2%, 74.39%, and 75.44%, respectively, the largest share of the Z configuration is at (525 nm) and, for the rest of (17a), (17b), (17c), (17e), (17f), and (17g), it is in range of 30.57–47.13% at 505 nm. […] Multiple cycles of photoreversible switching under alternating green and blue light irradiation, with no significant photobleaching or degradation, confirmed the repeatable and robust photochromic conversion of the synthesized azobenzenes (Figure 2b). Then we measured changes over time (transitions from Z to E, upon irradiation with 505 nm for (17a–17c) and (17e–17g), and 525 nm for (17i–17l) compounds (Figure 3, and see Section S4.3 in Supplementary Materials).

[2] = UV–VIS spectra of E/Z isomers in DMSO; type: physicochemical; details: for Δ λmax n→π*: between E and Z isomers
Method: For this purpose, the UV–VIS spectra were measured for all synthesized hybrids (17a–17l) at concentrations from 20 to 500 µM in dimethyl sulfoxide (DMSO) in light at λ 505 nm and for (17a–17c), (17e–17g), and (17i–17l) at λ 525 nm, respectively, as detailed in Table 1 (see Section S4.4 in Supplementary Materials).

[3] = system: PC-3 cells; assay: MTS cell proliferation assay, PC-3; type: cell-based, human
Method: Human BJ fibroblasts (American Type Cell Culture Collection, Manassas, VA, USA, CRL-2522) and human prostate cancer cell line PC-3 (American Type Cell Culture Collection, Manassas, VA, USA, CRL-1435), derived from bone metastases, were routinely grown in […]) Medium (ThermoFisher, Waltham, MA, USA, 21127-022) and supplemented with heat-inactivated 10% Fetal Bovine Serum (Biowest, France, […]) and 1% antibiotic solution (Biowest, Nuaillé, France, L0022), in a humidified 5% CO2 atmosphere at 37 °C. Cells were used between 3 and 20 passages. The 96-well plates were prepared by seeding 5 × 10^3 or 2.5 × 10^3 cells per well, for 24 and 48 h treatments, respectively, with at least five technical and two biological repeats. […] The cells were treated with either the Z conformer of 17j, with continuous illumination with 525 nm light, or the E conformer. The Z conformer was prepared by illuminating its DMSO solution with 525 nm light overnight. The cell proliferation was analyzed with CellTiter Aqueous One Solution Cell Proliferation MTS (3-(4,5-dimethylthiazol-2-yl)-5-(3-carboxymethoxyphenyl)-2-(4-sulfophenyl)-2H-tetrazolium) Assay (Promega, Madison, WI, USA, G5430) after 24 or 48 h of treatment. The absorbance was measured at 490 and 670 nm with FLUOStar Omega plate reader (BMG LABTECH GmbH, Ortenberg, Germany). The statistical analysis was performed within R 4.5.1 project. […] The log-logistic four parametric model (4PL), with the lower limit boundary set to 0 and group fitting, was used, as available in the drc package, to fit cell proliferation data. […] The assessment metrics for model goodness of fit were performed with functions available in the drc package and with custom ones. When appropriate, the delta method was applied to obtain error of central tendency. To assess the goodness of fit for each of the biological replicates, deviance R^2 (DR^2) was calculated and assessed. […] The DR^2 was calculated according to the following Equation: 1 - (Dres/Dnull), where Dres-residual deviance and Dnull-null deviance (deviance of the model with mean as a predicted value). The null hypothesis was assessed with the two-way ANOVA with Tukey's post hoc test for multiple comparisons or with the two-way t-test when only two groups were compared. The differences in the cell cycle percentages were assessed with the two-way ANOVA with Tukey's post hoc test.

[4] = system: PC-3 cells; assay: Cell cycle analysis by flow cytometry, PC-3; type: cell-based, human; details: 24 h
Method: The BJ or PC-3 cells were treated as described previously, with the exception that 0.15 × 10^6 cells per well were seeded in 6-well plates. After 24 h of treatment, cells were harvested by trypsinization (Biowest, Nuaillé, France, L0931), washed twice, resuspended in PBS, and added to cold 70% ethanol for overnight fixation at −20 °C. Subsequently, cells were centrifuged and resuspended in PBS containing 5 µg/mL of propidium iodide in PBS (Sigma-Aldrich, St. Louis, MO, USA, 4170), 0.1% Triton X-100, and 10 µg/mL of DNAse-free RNAse (A&A Biotechnology, Gdansk, Poland, 1006-10) in the dark for 4 h at 37 °C. FACS analysis was performed using a FACSCanto II flow cytometer and FACSDiva, version 9.0 software (BD Biosciences, San Jose, CA, USA). Flow rate was set to about 1000 events/cells per second. Signals from at least 10,000 events per sample were captured. The percentages of PC-3 cells in cell cycle phases (G0/G1, S, and G2/M) were determined using ModFit LT 4.1.7 (Verity Software House, Topsham, ME, USA).

Row | SMILES | Z isomer, changes over time ([1]; 0 h) [%] | Z isomer, changes over time ([1]; 1 h) [%] | Z isomer, changes over time ([1]; 2 h) [%] | Z isomer, changes over time ([1]; 3 h) [%] | Z isomer, changes over time ([1]; 4 h) [%] | Z isomer, changes over time ([1]; 5 h) [%] | Z isomer, changes over time ([1]; 6 h) [%] | Z isomer, changes over time ([1]; 7 h) [%] | Z isomer, changes over time ([1]; 8 h) [%] | Δ (Z to E change 0 h to 8 h) [1] [%] | εmax (n→π*) ([2]; E isomer) [dm^3·mol^−1·cm^−1] | λmax n→π* (E) ([2]; E isomer) [nm] | εmax (n→π*) ([2]; Z isomer) [dm^3·mol^−1·cm^−1] | λmax n→π* (Z) ([2]; Z isomer) [nm] | Δ λmax n→π* [2] [nm] | normalized asymptote ([3]; 24 h treatment) [%] | normalized asymptote ([3]; 48 h treatment) [%] | percentage of cells in the G2/M phase ([4]; 20 nM) [%] | percentage of cells in the G2/M phase ([4]; 60 nM) [%]
1 | COc1ccc(/C=C/C(=O)c2cccc(/N=N/c3ccc(F)cc3)c2)cc1OC [Compound 17a] | 32.44 | 31.33 | 30.37 | 29.4 | 28.74 | 27.66 | 26.82 | 26.38 | 26.02 | 6.42 | – | – | – | – | – | – | – | – | –
2 | COc1cc(/C=C/C(=O)c2cccc(/N=N/c3ccc(F)cc3)c2)cc(OC)c1OC [Compound 17c] | 30.59 | 30.16 | 28.28 | 27.14 | 25.95 | 25.61 | 25.18 | 24.05 | 23.17 | 7.42 | – | – | – | – | – | – | – | – | –
3 | COc1ccc(/C=C/C(=O)c2cccc(/N=N/c3ccc(F)cc3F)c2)cc1OC [Compound 17e] | 46.84 | 45.35 | 45.18 | 44.16 | 43.55 | 43.39 | 43.01 | 42.31 | 42.17 | 4.67 | – | – | – | – | – | – | – | – | –
4 | COc1cc(/C=C/C(=O)c2cccc(/N=N/c3ccc(F)cc3F)c2)cc(OC)c1OC [Compound 17g] | 44.82 | 43.69 | 42.89 | 42.36 | 41.25 | 40.61 | 40.5 | 39.88 | 38.78 | 6.04 | – | – | – | – | – | – | – | – | –
5 | COc1cc2c(c(OC)c1OC)-c1ccc(OC)c(=O)cc1[C@@H](NC(C)=O)CC2 [colchicine, reference compound] | – | – | – | – | – | – | – | – | – | – | – | – | – | – | – | 63.8 ± 6.2 | 51.3 ± 5.7 | 15.7 | 54.2

Second part, led by results:

Row | Z isomer, changes over time ([1]; 0 h) [%] | Z isomer, changes over time ([1]; 1 h) [%] | Z isomer, changes over time ([1]; 2 h) [%] | Z isomer, changes over time ([1]; 3 h) [%] | Z isomer, changes over time ([1]; 4 h) [%] | Z isomer, changes over time ([1]; 5 h) [%] | Z isomer, changes over time ([1]; 6 h) [%] | Z isomer, changes over time ([1]; 7 h) [%] | Z isomer, changes over time ([1]; 8 h) [%] | Δ (Z to E change 0 h to 8 h) [1] [%] | εmax (n→π*) ([2]; E isomer) [dm^3·mol^−1·cm^−1] | λmax n→π* (E) ([2]; E isomer) [nm] | εmax (n→π*) ([2]; Z isomer) [dm^3·mol^−1·cm^−1] | λmax n→π* (Z) ([2]; Z isomer) [nm] | Δ λmax n→π* [2] [nm] | SMILES | normalized asymptote ([3]; 24 h treatment) [%] | normalized asymptote ([3]; 48 h treatment) [%] | percentage of cells in the G2/M phase ([4]; 20 nM) [%] | percentage of cells in the G2/M phase ([4]; 60 nM) [%]
6 | 32.38 | 32.21 | 30.2 | 29.69 | 28.37 | 26.74 | 25.21 | 24.74 | 24.03 | 8.35 | 688 | 442.1 | 898 | 434.0 | 8.1 | COc1cc(/C=C/C(=O)c2cccc(/N=N/c3ccc(F)cc3)c2)cc(OC)c1 [Compound 17b] | – | – | – | –
7 | 47.13 | 46.61 | 45.77 | 44.72 | 44.28 | 43.95 | 43.3 | 42.6 | 41.87 | 5.26 | 872 | 441.9 | 1150 | 427.9 | 14.0 | COc1cc(/C=C/C(=O)c2cccc(/N=N/c3ccc(F)cc3F)c2)cc(OC)c1 [Compound 17f] | – | – | – | –
